# Experimental data reported in US20200115417A1, “A CYCLIC PEPTIDE AND PHARMACEUTICAL COMPOSITION COMPRISING THE SAME FOR INHIBITING PROLIFERATION OF HEV” (priority 2018, published 2020).
# Entries after “also recorded” stand apart in the source; their conditions may differ. Where no end group is shown, it is not given here.
# Columns and labels:
# [1] = biological target: T1, HEV ORF3 and human TSG101 proteins (Homo sapiens, UniProt Q99816); experiment: In vitro His-pull down assay, ORF3-TSG101 interaction; format: binding; settings: for interaction between ORF3 and TSG101: western blot
# T1 construct: made in house; host or cells: ORF3-his: E. coli BL21 (DE3); TSG101-myc: coupled in vitro transcription-translation (TNT T7 kit, Promega; rabbit reticulocyte lysate) from pGBKT7 TSG101
# T1 sequence (Q99816 1-390): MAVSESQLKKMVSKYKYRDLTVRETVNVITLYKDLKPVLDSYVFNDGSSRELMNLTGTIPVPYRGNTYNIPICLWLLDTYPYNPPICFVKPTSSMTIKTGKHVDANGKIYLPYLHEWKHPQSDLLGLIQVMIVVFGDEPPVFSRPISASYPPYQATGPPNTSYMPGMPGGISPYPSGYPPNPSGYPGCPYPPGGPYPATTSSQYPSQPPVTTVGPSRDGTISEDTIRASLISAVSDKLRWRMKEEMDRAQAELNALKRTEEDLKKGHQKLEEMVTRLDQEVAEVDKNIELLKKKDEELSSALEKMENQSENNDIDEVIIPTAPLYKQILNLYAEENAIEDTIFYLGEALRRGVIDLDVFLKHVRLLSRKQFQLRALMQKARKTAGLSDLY
# Experimental: (§1) pGBKT7 RdRp, TSG101 and ORF4 plasmids, in which coding sequence for RdRp, TSG101 and ORF4 is cloned under the control of the T7 promoter along with a N-terminal myc epitope tag was used for in vitro production of HEV RdRp, ORF4 and human TSG101 proteins. A coupled in vitro transcription-translation kit (TNT T7 kit) was used, following manufactures guidelines (Promega, Wis., USA). Aliquots of the TNT expressed proteins were mixed with 2× Laemelli buffer [125 mM Tris (pH 6.8), 4% SDS, 20% glycerol, 100 mM DTT and 0.02% bromophenol blue], incubated at 950 C for 5 minutes, resolved by SDS PAGE and western blotted with anti-myc antibody to confirm protein expression.
# An in vitro His-pull down assay was performed to monitor whether cyclic peptide inhibits the interaction between HEV ORF3 and human TSG101 proteins. His tagged ORF3 protein was purified from E. coli BL21 (DE3) following previously described protocols (50). Ni-NTA super flow agarose (Thermo Scientific, Massachusetts, USA) bound ORF3-his was equally aliquoted into separate 1.5 ml tubes followed by addition of TNT generated mock lysate, RdRp-myc lysate, TSG101-myc lysate, ORF4-myc lysate and CP11 (1 μM or 10 μM) in the required combinations in phosphate buffered saline (PBS; 10 mM PO43-, 137 mM NaCl, 2.7 mM KCl) supplemented with protease inhibitor cocktail. Samples were incubated on a flip flop shaker at 4° C. for 1 hour, followed by three washes in PBS. 30p1 of 2× Laemelli buffer was added to the beads and incubated at 950 C for 5 minutes. Aliquots of the eluted proteins were resolved by SDS-PAGE and western blotting was done using anti-myc and anti-ORF3 antibodies.
# Empty pGBKT7 vector was translated in parallel (denoted as mock lysate) to rule out non-specific cross reactivity of myc antibody with proteins present in the rabbit reticulocyte lysate. RdRp, TSG101 and ORF4 plasmid containing samples produced bands corresponding to their expected size (FIG. 1B). Two non-specific bands were detected in all samples (denoted by *). […]
# [2] = tested on: p6 HEV expressing Huh7 cells; experiment: MTT cell viability assay; format: cell-based, human; settings: 10 μM CP11 every alternate day for 6 days
# Experimental: (§2) The genomic RNAs of p6 HEV and p6 HEV-Luc were synthesized in vitro and size/integrity was monitored by formaldehyde agarose gel electrophoresis. ORF4-Huh7 cell line were prepared as reported (48) and maintained in Dulbecco's modified eagle medium containing 10% fetal calf serum, 50 IU/ml penicillin and streptomycin in 5% CO2. 200 μg/ml hygromycin was added to the cells during routine maintenance. Cells were then electroporated with genomic RNAs of p6 HEV and p6 HEV-Luc in a 4 mm cuvette at 200 Volt, 950 μF and infinite resistance. Electroporated cells were maintained in complete media for 5 days prior to the treatment with CP11.
# (§3) On 6th day post-electroporation/post-infection, HEV infection model was treated every alternate day with 10 μM of CP11 for 6 days followed by measurement of cell viability, quantification of replication of the viral genome and release of the progeny viruses.
# Cell viability was measured by MTT [3-(4,5-dimethyl-2-thiazolyl)-2,5-diphenyl-2H-tetrazolium bromide] assay using cell titer 96 non-radioactive cell proliferation assay kit.
# p6 HEV [3] = experiment: ELISA of viral capsid protein ORF2 in viruses released to culture medium; format: cell-based; settings: 10 μM CP11 treated samples; Huh7 cells
# Experimental: (§4) For estimation of the amount of virus released to the culture medium, medium from the above samples were collected and clarified by centrifugation at 7197×g, 4° C. for 15 minutes. 8% PEG (polyethylene glycol) 6000 and 0.4 M NaCl (final concentration) was added to the clarified samples and the mixture was incubated at 0° C. for 16 hours, followed by centrifugation at 20,000×g for 30 minutes. The pellet was resuspended in PBS and RNA was isolated using QIAamp Viral RNA Mini kit. Intracellular RNA was isolated using TRI reagent (MRC, Ohio, USA), following manufactures protocol.
# An ELISA was standardized using purified recombinant ORF2 protein (112-608aa region) as the antigen and a rabbit polyclonal anti-ORF2 antibody, which was earlier generated and characterized in our laboratory (48). Specificity of the assay was monitored by including appropriate controls such as rabbit preimmune serum and competition with the peptide, which was used to generate the antibody. […]
# For ELISA mediated quantification of p6 HEV present in the culture medium, PEG 6000 precipitated virus was resuspended in PBS and coated onto the ELISA plate overnight at 4° C. […]
# g-1 HEV = experiment: Release of g-1 HEV from infected ORF4-Huh7 cells; format: cell-based; settings: g-1 HEV clinical isolate, 10 μM CP11 every alternate day for 6 days
# Experimental: For infection studies, the HEV infection model was prepared by infecting 4×10^5 ORF4-Huh7 cells with 8×10^6 genome copies of the g-1 HEV clinical isolate for one hour, followed by three times washing of infected cells in PBS and maintenance in complete media for 5 days prior to treatment with CP11.
# as §3, §4
# ORF4 and ORF3 = experiment: In vitro His-pull down assay, ORF3-ORF4 interaction; format: binding, HEV; settings: 1 μM in the reaction mix; western blot
# Experimental: as §1
# An in vitro His-pull down assay was performed to monitor whether cyclic peptide inhibits the interaction between HEV ORF3 and human TSG101 proteins. His tagged ORF3 protein was purified from E. coli BL21 (DE3) following previously described protocols (50). […]
# Empty pGBKT7 vector was translated in parallel (denoted as mock lysate) to rule out non-specific cross reactivity of myc antibody with proteins present in the rabbit reticulocyte lysate. […] Two non-specific bands were detected in all samples (denoted by *). […]
# p6 HEV [4] = experiment: QRT-PCR of intracellular p6 HEV sense strand RNA; format: cell-based; settings: 10 μM CP11 every alternate day for 6 days; Huh7 cells; normalized to GAPDH
# Experimental: as §2
# On 6th day post-electroporation/post-infection, HEV infection model was treated every alternate day with 10 μM of CP11 for 6 days followed by measurement of cell viability, quantification of replication of the viral genome and release of the progeny viruses. […]
# For measuring levels of p6 HEV sense RNA and host GAPDH RNA, cDNA was synthesized using random hexamers and Superscript III reverse transcriptase. For subsequent quantitative real time, FP of sequence “[…]” (SEQ ID NO:3) and RP of sequence “accgggacagcgtgga” (SEQ ID NO:4) were used for p6 HEV sense and FP of sequence “[…]” (SEQ ID NO:5) and RP of sequence “[…]” (SEQ ID NO:6) were used for host GAPDH RNA.
# p6 HEV-Luc replicon = p6 HEV-Luc replicon Gaussia luciferase assay; format: cell-based; settings: 10 μM CP11 for 48 hours; Huh7 cells; normalized to cell viability
# Experimental: Possible effect of CP11 on HEV replication was investigated using a Huh7 cell-based model of p6 HEV replicon expressing luciferase. Luciferase assay was done through well-known methods. Briefly, Huh7 cells were electroporated with in vitro synthesized capped genomic RNA of p6 HEV-Luc and maintained in complete media for 5 days prior to the treatment with the cyclic peptide. 6th day post electroporation, 10 μM CP11 was added for 48 hours. Gaussia luciferase activity in the culture media was measured using Renilla luciferase assay kit (Promega, Wisconsin, USA). Luciferase values were normalized to that of the cell viability assay, and plotted as mean±SEM.
substance,measurement,setting,value
"CP11: Peptide 11 (CGWIYWNV; SEQ ID NO:1), cyclized and conjugated with the linear Tat peptide (CGRKKRRQRRRPPQ; SEQ ID NO:2) (also: peptide 11 cyclized, mode not given here, conjugated to linear Tat peptide, linkage not given here)",interaction between ORF3 and TSG101,[1]; 1 μM in the reaction mix,significantly reduced
same,interaction between ORF3 and TSG101,[1]; 10 μM of CP11 in the reaction mixture,completely inhibited
same,"inhibition of the interaction between ORF3 and TSG101 proteins, compared with other peptides",[1]; out of several cyclic peptides screened,most efficiently
same,"cytotoxic effect (cell viability, MTT)",[2],ruled out the possible cytotoxic effect; also recorded: without showing any cytotoxicity
same,ORF2 level in PEG 6000 precipitated virus from culture medium,p6 HEV [3],significantly less
same,block of release of g-1 HEV,g-1 HEV,approximately 90%
same,interaction between ORF4 and ORF3,ORF4 and ORF3,remains unaffected
same,viral sense strand RNA level in cells,p6 HEV [4],significant increase
same,luciferase activity (viral replication/RNA stability),p6 HEV-Luc replicon,no effect
